Data: patent US4020111A, “Propynyloxy alkyl arene insecticides” (priority 1975, dated 1977)

Experiments:
[1] = tested on: Wilson strain house flies; format: in vivo, house fly (susceptible Wilson strain); settings: for Contact Synergistic Ratio, Carbaryl (LC50 insecticide alone / LC50 with synergist): in vivo; for Contact Synergistic Ratio, Pyrolan (LC50 insecticide alone / LC50 with synergist): synergist to insecticide 5:1 by weight, 24 h
Method in brief: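 Flies held at room temperature in glass jars coated with acetone-deposited insecticide film, alone or with synergist at 5:1 synergist:insecticide by weight; 10% sugar supplied.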

houseflies = assay: percent kill with Diazinon, Table XXVII (strain not given); format: in vivo, housefly; settings: Diazinon 5 + synergist 10 μg/fly, 1440 min
mice = assay: acute toxicity of Dimetilan alone and of synergist alone (intraperitoneal); format: in vivo, Swiss albino white male mice; settings: synergist alone 1000 mg/kg ip, 72 hours, of eight mice
Procedure: To determine the acute toxicity of dimetilan alone, eight dosage levels of Dimetilan, ranging from 4 to 32 mg per kg wer applied to eight, Swiss, albino, white, male mice per dosage level. The mice weighed approximately 23 to 27 grams and were five to size weeks old. The Dimetilan was administered intraperitoneally in 0.1 ml of corn oil one hour after the administration of the same dose of corn oil alone.
To determine the acute toxicity of the synergist alone, various synergists were administered intraperitoneally at a dose of 1000 mg/kg to each of a group of eight mice. The number of animals dead at the end of 72 hours is reported in the left hand column of Table XXXXVI.

[2] = tested on: German male cockroaches (Blatella Germanicus); assay: topical application to thorax, 24 hour mortality of German male cockroaches; format: in vivo, German cockroach (Blatella Germanicus)

Compound	Contact Synergistic Ratio, Carbaryl (LC50 insecticide alone / LC50 with synergist) [1]	Contact Synergistic Ratio, Pyrolan (LC50 insecticide alone / LC50 with synergist) [1]	percent kill (houseflies) [%]	number of mice dead (mice)	insect mortality, synergist alone ([2]; synergist alone at doses of Table XXXX)	insect mortality, synergist alone ([2]; synergist alone at doses of Table XXXXI)
C#CCON=C(C)c1ccc(Cl)cc1 [I-D]	177	25	100			
C#CCOCc1c(Cl)ccc(Cl)c1Cl [II-E]	120	20				
C#CCOCc1c(Cl)cccc1[N+](=O)[O-] [II-K]				1	zero	zero
C#CCOCc1ccc(Cl)c(Cl)c1 [II-C]	100	15				
C#CCON=C(C)c1ccc2ccccc2c1 [I-F]	200	50				
C#CCOCc1ccc(Cl)c(Cl)c1Cl [II-D]	200	30		0		
C#CCON=Cc1ccc(Cl)cc1Cl [I-G]			90			
